Experimental data: ChEMBL document CHEMBL4138123, “Design, synthesis and biological evaluation of novel pyrazolochalcones as potential modulators of PI3K/Akt/mTOR pathway and inducers of apoptosis in breast cancer cells” (Eur J Med Chem, 2017)
Active and inactive are the calls of the source. The rule behind the calls is not given here.

Assays:
SNB-75 [1] = assay: Cytotoxicity against human SNB75 cells assessed as cell growth at 0.1 uM after 48 hrs by sulforhodamine B assay relative to control; format: functional; conditions: SNB-75, 48 h, read-out: Activity
SNB-75 [2] = assay: Cytotoxicity against human SNB75 cells assessed as cell growth at 0.01 uM after 48 hrs by sulforhodamine B assay relative to control; format: functional; conditions: SNB-75, 48 h, read-out: Activity
SNB-75 [3] = assay: Cytotoxicity against human SNB75 cells assessed as cell growth at 100 uM after 48 hrs by sulforhodamine B assay relative to control; format: functional; conditions: SNB-75, 48 h, read-out: Activity
CAKI-1 [4] = assay: Cytotoxicity against human Caki1 cells assessed as cell growth at 0.1 uM after 48 hrs by sulforhodamine B assay relative to control; format: functional; conditions: CAKI-1, 48 h, read-out: Activity
SK-OV-3 = assay: Cytotoxicity against human SKOV3 cells assessed as cell growth at 100 uM after 48 hrs by sulforhodamine B assay relative to control; format: functional; conditions: SK-OV-3, 48 h, read-out: Activity
CAKI-1 [5] = assay: Cytotoxicity against human Caki1 cells assessed as cell growth at 100 uM after 48 hrs by sulforhodamine B assay relative to control; format: functional; conditions: CAKI-1, 48 h, read-out: Activity
SF-295 [6] = assay: Cytotoxicity against human SF295 cells assessed as growth inhibition after 48 hrs by sulforhodamine B assay; format: functional; conditions: SF-295, 48 h
CAKI-1 [7] = assay: Cytotoxicity against human Caki1 cells assessed as cell growth at 1 uM after 48 hrs by sulforhodamine B assay relative to control; format: functional; conditions: CAKI-1, 48 h, read-out: Activity
CAKI-1 [8] = assay: Cytotoxicity against human Caki1 cells assessed as cell growth at 0.01 uM after 48 hrs by sulforhodamine B assay relative to control; format: functional; conditions: CAKI-1, 48 h, read-out: Activity
SNB-75 [9] = assay: Cytotoxicity against human SNB75 cells assessed as cell growth at 10 uM after 48 hrs by sulforhodamine B assay relative to control; format: functional; conditions: SNB-75, 48 h, read-out: Activity
SF-295 [10] = assay: Cytotoxicity against human SF295 cells assessed as cell growth at 100 uM after 48 hrs by sulforhodamine B assay relative to control; format: functional; conditions: SF-295, 48 h, read-out: Activity
MCF7 [11] = assay: Induction of apoptosis in human MCF7 cells assessed as late apoptotic cells at 2 uM after 24 hrs by Annexin-V FITC/propidium iodide staining-based FACS analysis (reference value: 5.4%); format: functional
SF-295 [12] = assay: Cytotoxicity against human SF295 cells assessed as cell growth at 1 uM after 48 hrs by sulforhodamine B assay relative to control; format: functional; conditions: SF-295, 48 h, read-out: Activity
SF-295 [13] = assay: Cytotoxicity against human SF295 cells assessed as cell growth at 0.1 uM after 48 hrs by sulforhodamine B assay relative to control; format: functional; conditions: SF-295, 48 h, read-out: Activity
SNB-75 [14] = assay: Cytotoxicity against human SNB75 cells assessed as growth inhibition after 48 hrs by sulforhodamine B assay; format: functional; conditions: SNB-75, 48 h
SF-295 [15] = assay: Cytotoxicity against human SF295 cells assessed as cell growth at 0.01 uM after 48 hrs by sulforhodamine B assay relative to control; format: functional; conditions: SF-295, 48 h, read-out: Activity
CAKI-1 [16] = assay: Cytotoxicity against human Caki1 cells assessed as growth inhibition after 48 hrs by sulforhodamine B assay; format: functional; conditions: CAKI-1, 48 h
MCF7 [17] = assay: Downregulation of Akt protein expression in human MCF7 cells at 2 uM after 24 hrs by Western blot analysis; format: functional, cell-based
MCF7 [18] = assay: Induction of intrinsic apoptosis in human MCF7 cells assessed as effect on mitochondrial membrane depolarization by measuring mean fluorescence intensity at 2 uM after 18 hrs by DiOC6 staining-based FACS analysis (reference value: 463); format: functional
MCF7 [19] = assay: Downregulation of Bcl-2 mRNA expression in human MCF7 cells at 2 uM after 48 hrs by qRT-PCR analysis; format: functional, cell-based
MCF7 [20] = assay: Inhibition of PI3K in human MCF7 cells assessed as downregulation of phosphorylated Akt levels at 2 uM after 24 hrs by Western blot analysis; format: cell-based
CAKI-1 [21] = assay: Cytotoxicity against human Caki1 cells assessed as cell growth at 10 uM after 48 hrs by sulforhodamine B assay relative to control; format: functional; conditions: CAKI-1, 48 h, read-out: Activity
MCF7 [22] = assay: Cell cycle arrest in human MCF7 cells assessed as accumulation at G0/G1 phase at 2 uM after 24 hrs by flow cytometric analysis (reference value: 18.4%); format: functional
SNB-75 [23] = assay: Cytotoxicity against human SNB75 cells assessed as cell growth at 1 uM after 48 hrs by sulforhodamine B assay relative to control; format: functional; conditions: SNB-75, 48 h, read-out: Activity
LOX IMVI [24] = assay: Cytotoxicity against human LOXIMVI cells assessed as cell growth at 100 uM after 48 hrs by sulforhodamine B assay relative to control; format: functional; conditions: read-out: Activity
SK-MEL-2 [25] = assay: Cytotoxicity against human SK-MEL-2 cells assessed as cell growth at 100 uM after 48 hrs by sulforhodamine B assay relative to control; format: functional; conditions: SK-MEL-2, 48 h, read-out: Activity
SK-MEL-2 [26] = assay: Cytotoxicity against human SK-MEL-2 cells assessed as cell growth at 1 uM after 48 hrs by sulforhodamine B assay relative to control; format: functional; conditions: SK-MEL-2, 48 h, read-out: Activity
LOX IMVI [27] = assay: Cytotoxicity against human LOXIMVI cells assessed as cell growth at 0.1 uM after 48 hrs by sulforhodamine B assay relative to control; format: functional; conditions: read-out: Activity
LOX IMVI [28] = assay: Cytotoxicity against human LOXIMVI cells assessed as cell growth at 10 uM after 48 hrs by sulforhodamine B assay relative to control; format: functional; conditions: read-out: Activity
LOX IMVI [29] = assay: Cytotoxicity against human LOXIMVI cells assessed as cell growth at 0.01 uM after 48 hrs by sulforhodamine B assay relative to control; format: functional; conditions: read-out: Activity
LOX IMVI [30] = assay: Cytotoxicity against human LOXIMVI cells assessed as cell growth at 1 uM after 48 hrs by sulforhodamine B assay relative to control; format: functional; conditions: read-out: Activity
SK-MEL-2 [31] = assay: Cytotoxicity against human SK-MEL-2 cells assessed as cell growth at 10 uM after 48 hrs by sulforhodamine B assay relative to control; format: functional; conditions: SK-MEL-2, 48 h, read-out: Activity
HOP-92 [32] = assay: Cytotoxicity against human HOP92 cells assessed as cell growth at 10 uM after 48 hrs by sulforhodamine B assay relative to control; format: functional; conditions: HOP-92, 48 h, read-out: Activity
HOP-92 [33] = assay: Cytotoxicity against human HOP92 cells assessed as cell growth at 1 uM after 48 hrs by sulforhodamine B assay relative to control; format: functional; conditions: HOP-92, 48 h, read-out: Activity
HOP-92 [34] = assay: Cytotoxicity against human HOP92 cells assessed as cell growth at 100 uM after 48 hrs by sulforhodamine B assay relative to control; format: functional; conditions: HOP-92, 48 h, read-out: Activity
SK-MEL-2 [35] = assay: Cytotoxicity against human SK-MEL-2 cells assessed as cell growth at 0.01 uM after 48 hrs by sulforhodamine B assay relative to control; format: functional; conditions: SK-MEL-2, 48 h, read-out: Activity
HOP-92 [36] = assay: Cytotoxicity against human HOP92 cells assessed as growth inhibition after 48 hrs by sulforhodamine B assay; format: functional; conditions: HOP-92, 48 h
SK-MEL-2 [37] = assay: Cytotoxicity against human SK-MEL-2 cells assessed as cell growth at 0.1 uM after 48 hrs by sulforhodamine B assay relative to control; format: functional; conditions: SK-MEL-2, 48 h, read-out: Activity
HOP-92 [38] = assay: Cytotoxicity against human HOP92 cells assessed as cell growth at 0.1 uM after 48 hrs by sulforhodamine B assay relative to control; format: functional; conditions: HOP-92, 48 h, read-out: Activity
HOP-92 [39] = assay: Cytotoxicity against human HOP92 cells assessed as cell growth at 0.01 uM after 48 hrs by sulforhodamine B assay relative to control; format: functional; conditions: HOP-92, 48 h, read-out: Activity

SMILES: COc1cc(C(=O)/C=C/c2cc(-c3ccc4c(c3)OCO4)n[nH]2)cc(OC)c1OC
- growth at 0.1 µM (SNB-75 [1]): 87%
- growth at 0.01 µM (SNB-75 [2]): 85%
- growth at 100 µM (SNB-75 [3]): -100%
- growth at 0.1 µM (CAKI-1 [4]): 97%
- growth at 100 µM (SK-OV-3): -98%
- growth at 100 µM (CAKI-1 [5]): -82%
- GI50 (SF-295 [6]): 2.58 µM
- LC50 (SF-295 [6]): 36.4 µM
- TGI (SF-295 [6]): 10.1 µM
- growth at 1 µM (CAKI-1 [7]): 83%
- growth at 0.01 µM (CAKI-1 [8]): 96%
- growth at 10 µM (SNB-75 [9]): -14%
- growth at 100 µM (SF-295 [10]): -89%
- Activity (MCF7 [11]): 8.4%
- growth at 1 µM (SF-295 [12]): 85%
- growth at 0.1 µM (SF-295 [13]): 95%
- GI50 (SNB-75 [14]): 2.4 µM
- LC50 (concentration killing 50% of cells) (SNB-75 [14]): 26.1 µM
- TGI (SNB-75 [14]): 7.27 µM
- growth at 0.01 µM (SF-295 [15]): 93%
- GI50 (CAKI-1 [16]): 1.99 µM
- LC50 (CAKI-1 [16]): 26.1 µM
- TGI (CAKI-1 [16]): 5.65 µM
- Activity (MCF7 [17]): Active
- Flu intensity (MCF7 [18]): 313
- Activity (MCF7 [19]): Active
- phospho-Akt downregulation (active/inactive) (MCF7 [20]): Active
- growth at 10 µM (CAKI-1 [21]): -27%
- Activity (MCF7 [22]): 35.4%
- growth at 1 µM (SNB-75 [23]): 90%

SMILES: COc1ccc(C(=O)/C=C/c2cc(-c3cc(OC)c(OC)c(OC)c3)n[nH]2)cc1
- growth at 100 µM (LOX IMVI [24]): -32%
- growth at 0.1 µM (CAKI-1 [4]): 93%
- growth at 100 µM (SK-MEL-2 [25]): -50%
- growth at 100 µM (SK-OV-3): -41%
- growth at 100 µM (CAKI-1 [5]): 1%
- growth at 1 µM (CAKI-1 [7]): 89%
- growth at 1 µM (SK-MEL-2 [26]): 97%
- growth at 0.1 µM (LOX IMVI [27]): 93%
- growth at 10 µM (LOX IMVI [28]): -92%
- growth at 0.01 µM (CAKI-1 [8]): 95%
- growth at 0.01 µM (LOX IMVI [29]): 95%
- growth at 1 µM (LOX IMVI [30]): 85%
- growth at 10 µM (SK-MEL-2 [31]): 21%
- growth at 10 µM (HOP-92 [32]): -56%
- growth at 1 µM (HOP-92 [33]): 53%
- LC50 (CAKI-1 [16]): > 100 µM
- Activity (MCF7 [17]): Active
- growth at 100 µM (HOP-92 [34]): -36%
- growth at 0.01 µM (SK-MEL-2 [35]): 92%
- TGI (HOP-92 [36]): 3.04 µM
- Activity (MCF7 [19]): Active
- phospho-Akt downregulation (active/inactive) (MCF7 [20]): Active
- growth at 0.1 µM (SK-MEL-2 [37]): 90%
- growth at 10 µM (CAKI-1 [21]): -17%
- growth at 0.1 µM (HOP-92 [38]): 83%
- growth at 0.01 µM (HOP-92 [39]): 87%
